Data: ChEMBL document CHEMBL4342405, “Clinical candidates modulating protein-protein interactions: The fragment-based experience” (Eur J Med Chem, 2019)
Values belong to the compound of their own block, whether it stands above or below them.

Assays:
Bcl-2-like protein 1 [1] = molecular target: T1, Bcl-2-like protein 1 (Homo sapiens, UniProt Q07817); assay: Inhibition of BCL-XL (unknown origin) incubated for 15 mins by fluorescence polarization assay
Bcl-2-like protein 1 [2] = molecular target: T1, Bcl-2-like protein 1; assay: Binding affinity to BCL-XL (unknown origin) by 15N HSQC NMR analysis
[3] = Half life in monkey; format: ADME, Macaca mulatta; settings: rhesus monkey, in vivo
[4] = Oral bioavailability in monkey; format: ADME, organism-based, Macaca mulatta; settings: rhesus monkey, in vivo
[5] = Half life in rat; format: ADME; settings: in vivo
[6] = Oral bioavailability in rat; format: ADME, organism-based; settings: in vivo
[7] = Half life in mouse; format: ADME, organism-based; settings: in vivo
[8] = Oral bioavailability in mouse; format: ADME, organism-based; settings: in vivo
[9] = Half life in dog; format: ADME, Canis lupus familiaris; settings: in vivo
[10] = Oral bioavailability in dog; format: ADME, organism-based, Canis lupus familiaris; settings: in vivo
[11] = Half life in human; format: ADME
Bcl-2-like protein 2 = molecular target: T2, Bcl-2-like protein 2 (Homo sapiens, UniProt Q92843); assay: Inhibition of BCL-W (unknown origin) by fluorescence polarization assay
T2 sequence (Q92843 whole entry): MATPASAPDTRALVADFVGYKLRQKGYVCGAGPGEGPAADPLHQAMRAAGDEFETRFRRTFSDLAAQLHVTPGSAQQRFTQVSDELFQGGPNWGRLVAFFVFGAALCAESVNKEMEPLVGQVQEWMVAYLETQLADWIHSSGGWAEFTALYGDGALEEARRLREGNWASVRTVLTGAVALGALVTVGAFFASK

[12] = Toxicity in mouse xenografted with human haematological tumor at 12.5 mg/kg, po; format: organism-based

T1 sequence (Q07817 whole entry): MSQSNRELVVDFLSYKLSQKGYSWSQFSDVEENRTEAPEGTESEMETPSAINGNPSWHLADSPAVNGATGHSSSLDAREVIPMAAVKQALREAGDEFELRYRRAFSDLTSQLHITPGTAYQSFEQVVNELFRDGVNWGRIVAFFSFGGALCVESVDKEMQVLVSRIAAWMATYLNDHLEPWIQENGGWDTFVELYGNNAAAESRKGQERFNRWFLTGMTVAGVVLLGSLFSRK

- half-life [3]: 4 to 6.4 h
- bioavailability [4]: 20%
- half-life [5]: 4 to 6.4 h
- bioavailability [6]: 20%
- half-life [7]: 4 to 6.4 h
- bioavailability [8]: 20%
- half-life [9]: 4 to 6.4 h
- bioavailability [10]: 20%
SMILES: CN(C)CC[C@H](CSc1ccccc1)Nc1ccc(S(=O)(=O)NC(=O)c2ccc(N3CCN(Cc4ccccc4-c4ccc(Cl)cc4)CC3)cc2)cc1[N+](=O)[O-] [ABT 737]

- half-life [11]: 25 h
SMILES: CCS(=O)(=O)Nc1ccc(Oc2ccc(F)cc2F)c(-c2cn(C)c(=O)c3[nH]ccc23)c1 [MIVEBRESIB]

- Ki (Bcl-2-like protein 2): 0.245 µM
SMILES: CC1(C)CCC(c2ccc(Cl)cc2)=C(CN2CCN(c3ccc(C(=O)NS(=O)(=O)c4ccc(N[C@H](CCN5CCOCC5)CSc5ccccc5)c(S(=O)(=O)C(F)(F)F)c4)cc3)CC2)C1 [NAVITOCLAX]
- EC50 [12]: 0.083 µM

More lines, now with the values behind:

SMILES: O=C(O)c1ccc(-c2ccc(F)cc2)cc1/C=C/c1cccc(-c2ccccc2)c1
- Ki (Bcl-2-like protein 1 [1]): 1.4 µM

SMILES: Oc1ccc(-c2ccccc2)cc1
- Kd (Bcl-2-like protein 1 [2]): 6000 µM

SMILES: CC1(C)CCC(CN2CCN(c3ccc(C(=O)NS(=O)(=O)c4ccc(NCC5CCOCC5)c([N+](=O)[O-])c4)c(Oc4cnc5[nH]ccc5c4)c3)CC2)=C(c2ccc(Cl)cc2)C1 [VENETOCLAX]
- EC50 [12]: 5.5 µM
